Test systems include CAKI-1 renal; HCC-2998 colon; HOP-62 NSCLC; HT29 colon; OVCAR-3 ovarian; SF-539 CNS; SK-MEL-5 melanoma; SK-OV-3 ovarian; SNB-75 CNS; U251 CNS.
Common to all, as to test: DTP human tumour cell line panel, 48 h

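Where inhibition never reached the appropriate level, the endpoint shown equals the highest concentration tested. Otherwise, values were interpolated linearly from a five-concentration, 48-hour dose response in 96-well plates. GI50 = concentration required for 50% inhibition of growth. TGI: concentration producing complete growth inhibition.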

A word on the TGI: it is the concentration giving total growth inhibition. On to `CC(C)S(=O)(=O)ON1C(=O)c2ccc([N+](=O)[O-])cc2C1=O`, for which the TGI in the test on CAKI-1 renal, in the test on HCC-2998 colon, with HOP-62 NSCLC, with HT29 colon, with OVCAR-3 ovarian and with SF-539 CNS was > 100 µM in each case. Also, the TGI in the test with SK-MEL-5 melanoma, in the test with SK-OV-3 ovarian, in the test on SNB-75 CNS and with U251 CNS was > 100 µM in each case.
One may read the GI50 as the concentration that inhibits growth by half. As to `c1ccc(-c2nn(-c3ccccc3)[n+](-c3ccccc3-c3ccccc3)n2)cc1`, the GI50 was 16.5 µM in the test with CAKI-1 renal; 0.94 µM in the test on HCC-2998 colon; 2.1 µM with HOP-62 NSCLC; 0.673 µM in the test with HT29 colon; 0.416 µM in the test on OVCAR-3 ovarian; 2.03 µM in the test on SF-539 CNS. The GI50 in the test on SK-MEL-5 melanoma was 0.409 µM; in the test on SK-OV-3 ovarian it was 1.29 µM; with SNB-75 CNS it was 1.23 µM; in the test on U251 CNS, 0.533 µM. For the same compound, the TGI in the test on CAKI-1 renal is 89.9 µM; in the test on HCC-2998 colon, 17.3 µM; in the test on HOP-62 NSCLC, > 42.2 µM; with HT29 colon it was 18.4 µM; with OVCAR-3 ovarian it was 15.5 µM; in the test with SF-539 CNS it was 23.4 µM. Further, the total growth inhibition concentration (TGI) is 2.2 µM in the test with SK-MEL-5 melanoma, > 29.1 µM with SK-OV-3 ovarian, 19.9 µM in the test on SNB-75 CNS and 61.8 µM with U251 CNS.
For `O=C(CN1CCN(c2cc3c(cc2F)c(=O)c(C(=O)O)cn3C2CC2)CC1)Nc1ccc(C(=O)/C=C/c2ccccc2)cc1`, the GI50 in the test on CAKI-1 renal is 1.76 µM; in the test on HCC-2998 colon it was 39.6 µM; in the test on HOP-62 NSCLC, 4.46 µM; with HT29 colon, 2.99 µM; in the test with OVCAR-3 ovarian, 3.65 µM; with SF-539 CNS, 3.6 µM. The GI50 is 2.74 µM in the test on SK-MEL-5 melanoma, 27.3 µM in the test with SK-OV-3 ovarian, 3.22 µM in the test on SNB-75 CNS and 2.92 µM in the test on U251 CNS. The TGI was 5.32 µM in the test with CAKI-1 renal; > 100 µM with HCC-2998 colon; > 100 µM in the test with HOP-62 NSCLC; 10.3 µM in the test with HT29 colon; > 100 µM in the test with OVCAR-3 ovarian; > 100 µM with SF-539 CNS. Also, the concentration for total growth inhibition (TGI) was 13 µM with SK-MEL-5 melanoma, > 100 µM in the test with SK-OV-3 ovarian, > 100 µM in the test on SNB-75 CNS and > 100 µM in the test on U251 CNS.
`CC(=O)O[C@H]1Cc2c([nH]c3ccccc23)[C@@H](c2ccc(Cl)cc2)N1C(=O)CCNC(C)(C)C`: the GI50 with CAKI-1 renal is 2.77 µM; with HCC-2998 colon, 3.65 µM; in the test with HOP-62 NSCLC it was 2.67 µM; in the test with HT29 colon it was 1.59 µM; with OVCAR-3 ovarian, 3.98 µM; with SF-539 CNS it was 4.69 µM. In addition, the GI50 with SK-MEL-5 melanoma was 1.28 µM; in the test with SK-OV-3 ovarian, 4.53 µM; with SNB-75 CNS, 1.64 µM; in the test on U251 CNS, 4.33 µM. Moreover, the TGI was determined as 7.01 µM in the test on CAKI-1 renal; 7.85 µM in the test on HCC-2998 colon; 7.07 µM in the test with HOP-62 NSCLC; 5.57 µM in the test on HT29 colon; 8.59 µM in the test with OVCAR-3 ovarian; 9.12 µM in the test on SF-539 CNS. In addition, the TGI in the test with SK-MEL-5 melanoma was determined as 4.61 µM; in the test with SK-OV-3 ovarian, 8.97 µM; with SNB-75 CNS it was 7.52 µM; with U251 CNS, 8.62 µM.
For `CC1CC(=O)CC[C@@H]1OCc1ccccc1` (stereo not given in full), the TGI in the test with CAKI-1 renal, in the test on HCC-2998 colon, with HOP-62 NSCLC, with HT29 colon, in the test on OVCAR-3 ovarian and in the test with SF-539 CNS was > 100 µM in each case. The TGI in the test on SK-MEL-5 melanoma, in the test on SK-OV-3 ovarian, with SNB-75 CNS and with U251 CNS was > 100 µM throughout.
Regarding `NC(=O)c1ccc(S(=O)(=NS(=O)(=O)c2ccccc2)c2ccc(C(N)=O)cc2)cc1`, the TGI in the test on CAKI-1 renal, with HCC-2998 colon, in the test on HOP-62 NSCLC, in the test with HT29 colon, with OVCAR-3 ovarian and in the test on SF-539 CNS was > 100 µM throughout. For the same compound, the TGI in the test with SK-MEL-5 melanoma, with SK-OV-3 ovarian, with SNB-75 CNS and in the test on U251 CNS was > 100 µM throughout.
`COC(=O)C([O][Ge]([CH3])([CH3])[CH3])c1ccccc1` (stereo not given): the GI50 in the test on CAKI-1 renal, with HCC-2998 colon, with HOP-62 NSCLC, with HT29 colon, with OVCAR-3 ovarian and in the test on SF-539 CNS was > 100 µM in each case. Moreover, the GI50 with SK-MEL-5 melanoma, in the test with SK-OV-3 ovarian, in the test with SNB-75 CNS and in the test on U251 CNS was > 100 µM in each case. Also, the TGI in the test with CAKI-1 renal, with HCC-2998 colon, in the test with HOP-62 NSCLC, in the test on HT29 colon, in the test on OVCAR-3 ovarian and with SF-539 CNS was > 100 µM in each case. For the same compound, the TGI in the test on SK-MEL-5 melanoma, in the test with SK-OV-3 ovarian, in the test with SNB-75 CNS and with U251 CNS was > 100 µM in each case.

(Values after PubChem BioAssay (NCI).)
